Values joined by “and” are separate entries in the source; they are usually repeats but may differ in a detail not shown here. Equal entries are not always repeated. Where two headings read alike, the source gives them in different places.
Legend:
[1] = tested on: HEK293T cells; test: Drug sensitivity assay (CellTiter-Glo viability) with or without MLN4924 pretreatment; type: cell-based, human; conditions: Supplementary Table 2; for EC50: Homo sapiens, HEK-293T, HEK293T viability, 72 h, compound alone, read-out: Cellular assays EC50; for Toxicity rescue: MLN4924-mediated cytotoxicity rescue, 10 µM used where n.d.
Method in brief: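 Luminescent ATP read-out (CellTiter-Glo) after 3 days of drug exposure, normalised to DMSO controls. Cells were HEK293T–Cas9, pretreated with 100 nM MLN4924 or DMSO for 2 h before drug dispensing.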

[2] = molecular target: T1, CDK12–cyclin K and DDB1 (Homo sapiens, UniProt Q16531+Q9NYV4, K965R); test: TR-FRET ternary complex formation assay (compound titration); type: binding; conditions: for TR-FRET signal at compound concentration: replicate titrations
T1 construct: His6–CDK12 (a.a. 713–1,052); full-length or beta-propeller B domain deletion (ΔBPB: a.a. 396–705 deleted) constructs of His6–DDB1ΔBPB, StrepII–Avi–DDB1, or His6–Spy–DDB1; made in house; host or cells: Trichoplusia ni High Five insect cells (baculovirus)
T1 sequence (Q9NYV4 713-1052 K965R): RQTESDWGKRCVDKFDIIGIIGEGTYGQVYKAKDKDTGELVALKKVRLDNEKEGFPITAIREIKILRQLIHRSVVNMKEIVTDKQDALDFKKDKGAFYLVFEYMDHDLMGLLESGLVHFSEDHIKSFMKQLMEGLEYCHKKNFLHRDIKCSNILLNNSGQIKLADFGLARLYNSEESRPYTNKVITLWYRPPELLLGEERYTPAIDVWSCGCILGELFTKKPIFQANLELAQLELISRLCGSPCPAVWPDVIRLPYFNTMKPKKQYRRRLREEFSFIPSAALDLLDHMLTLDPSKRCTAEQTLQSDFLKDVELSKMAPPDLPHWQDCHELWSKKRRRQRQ
T1 sequence (O75909 1-267 partner): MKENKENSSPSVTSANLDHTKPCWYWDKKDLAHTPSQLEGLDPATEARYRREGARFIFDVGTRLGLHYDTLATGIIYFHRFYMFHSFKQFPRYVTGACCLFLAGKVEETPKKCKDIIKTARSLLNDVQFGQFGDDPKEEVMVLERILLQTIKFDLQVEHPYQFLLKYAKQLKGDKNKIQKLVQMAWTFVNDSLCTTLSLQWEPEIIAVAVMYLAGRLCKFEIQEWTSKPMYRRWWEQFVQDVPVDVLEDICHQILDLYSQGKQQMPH
T1 sequence (Q16531 whole entry): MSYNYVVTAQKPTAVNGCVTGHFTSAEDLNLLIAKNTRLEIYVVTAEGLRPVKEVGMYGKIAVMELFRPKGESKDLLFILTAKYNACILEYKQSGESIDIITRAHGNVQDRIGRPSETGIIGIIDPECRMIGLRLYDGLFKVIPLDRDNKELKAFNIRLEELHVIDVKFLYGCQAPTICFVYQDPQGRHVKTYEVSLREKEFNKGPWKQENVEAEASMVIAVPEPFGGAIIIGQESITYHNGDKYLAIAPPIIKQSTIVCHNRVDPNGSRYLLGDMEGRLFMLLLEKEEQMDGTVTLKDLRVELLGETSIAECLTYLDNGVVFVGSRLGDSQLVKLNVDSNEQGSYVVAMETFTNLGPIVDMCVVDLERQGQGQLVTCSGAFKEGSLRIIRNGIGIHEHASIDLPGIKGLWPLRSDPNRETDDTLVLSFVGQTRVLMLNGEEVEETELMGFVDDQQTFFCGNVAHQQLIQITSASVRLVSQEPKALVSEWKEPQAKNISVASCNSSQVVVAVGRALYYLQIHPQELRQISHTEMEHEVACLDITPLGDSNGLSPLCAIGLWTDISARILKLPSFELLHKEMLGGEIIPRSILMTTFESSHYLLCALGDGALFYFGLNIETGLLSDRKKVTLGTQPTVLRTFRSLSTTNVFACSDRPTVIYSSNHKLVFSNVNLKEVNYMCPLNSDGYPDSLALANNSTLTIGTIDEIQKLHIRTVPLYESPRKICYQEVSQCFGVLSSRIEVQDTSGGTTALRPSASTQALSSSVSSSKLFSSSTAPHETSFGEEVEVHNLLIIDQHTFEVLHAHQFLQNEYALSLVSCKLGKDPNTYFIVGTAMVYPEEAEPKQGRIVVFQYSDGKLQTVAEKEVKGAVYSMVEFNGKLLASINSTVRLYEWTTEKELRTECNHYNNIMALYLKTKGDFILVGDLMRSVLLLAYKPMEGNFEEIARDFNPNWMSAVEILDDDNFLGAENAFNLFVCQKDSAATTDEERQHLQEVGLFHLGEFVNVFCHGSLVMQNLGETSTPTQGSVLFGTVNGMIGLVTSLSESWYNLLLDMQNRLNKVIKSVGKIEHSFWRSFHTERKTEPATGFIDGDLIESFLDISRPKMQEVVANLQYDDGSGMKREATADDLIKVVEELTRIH
Method in brief: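 TR-FRET ratio 520/490 nm; 70 μs delay before read to suppress background.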

[3] = tested on: cyclin K–eGFP degradation reporter; test: Cyclin K reporter stability analysis (dual-color cyclin K–eGFP reporter); type: cell-based, human
Method in brief: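 Readout: flow-cytometric eGFP/mCherry ratio (geometric means, round mCherry+ gate) relative to the average of three DMSO wells. Reporter line was HEK293T–Cas9, treated 5 h with compound.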

[4] = compound concentration 79.2001 nM
[5] = compound concentration 158.4 nM
[6] = compound concentration 309.6 nM
[7] = compound concentration 626.401 nM
[8] = compound concentration 1252.8 nM
[9] = compound concentration 9936.01 nM
[10] = compound concentration 20016 nM
[11] = in vitro complex formation, 50 nM CDK12–cyclin K, 100 nM DDB1, text and figures, read-out: TR-FRET EC50
[12] = Supplementary Table 2, HEK293T cycK-eGFP reporter, 5 h, read-out: Cellular assays DC50
[13] = Supplementary Table 2, read-out: TR-FRET EC50 TR-FRET
[14] = sheet MOESM7, read-out: log TR-FRET EC50 (converted)
[15] = source data sheet correlations, read-out: TR-FRET EC50
[16] = source data sheet correlations, read-out: DC50

| SMILES | EC50 [1] | Toxicity rescue [1] | EC50 [2, 11] | DC50 [3, 12] | EC50 [2, 13] | TR-FRET signal, individual replicate ([2]; compound concentration 4.68 nM) | TR-FRET signal, individual replicate ([2]; compound concentration 21.6 nM) | TR-FRET signal, individual replicate ([2]; compound concentration 36 nM) | TR-FRET signal, individual replicate [2, 4] | TR-FRET signal, individual replicate [2, 5] | TR-FRET signal, individual replicate [2, 6] | TR-FRET signal, individual replicate [2, 7] | TR-FRET signal, individual replicate [2, 8] | TR-FRET signal, individual replicate ([2]; compound concentration 2448 nM) | TR-FRET signal, individual replicate [2, 9] | TR-FRET signal, individual replicate [2, 10] | EC50 [2, 14] | other results |
| --- | --- | --- | --- | --- | --- | --- | --- | --- | --- | --- | --- | --- | --- | --- | --- | --- | --- | --- |
| CC[C@H](CO)Nc1nc(NCc2ccc3cc(O)ccc3c2)c2ncn(C(C)C)c2n1 [DS14] | > 10 µM | 0% | 2.36 ± 0.777 µM | > 10 µM |  |  |  |  |  |  |  |  |  |  |  |  |  | TR-FRET signal ([2]; compound concentration 4.68 nM): 0.1364 and 0.1548; TR-FRET signal ([2]; compound concentration 21.6 nM): 0.1403 and 0.1585; TR-FRET signal ([2]; compound concentration 36 nM): 0.1464 and 0.1703; TR-FRET signal [2, 4]: 0.164 and 0.1861; TR-FRET signal [2, 5]: 0.1899 and 0.214; TR-FRET signal [2, 6]: 0.2284 and 0.2573; TR-FRET signal [2, 7]: 0.2863 and 0.3257; TR-FRET signal [2, 8]: 0.3495 and 0.4048; TR-FRET signal ([2]; compound concentration 2448 nM): 0.4136 and 0.4783; TR-FRET signal [2, 9]: 0.5447 and 0.6287; TR-FRET signal [2, 10]: 0.6134 and 0.6953 |
| CCCCc1ccc(CNc2nc(N[C@H](CC)CO)nc3c2ncn3C(C)C)cc1 [DS03] | > 10 µM | 0% | 0.185 ± 0.022 µM | > 10 µM | 0.185 µM | 0.1665 and 0.1912 | 0.2604 and 0.3178 | 0.4113 and 0.4843 | 0.6704 and 0.7869 | 0.9573 and 1.072 | 1.2282 and 1.396 | 1.549 and 1.7468 | 1.782 and 2.014 | 1.858 and 2.0804 | 1.8943 and 2.138 | 1.837 and 2.0323 | 0.185 µM |  |
| CC[C@H](CO)Nc1nc(NC)c2ncn(C(C)C)c2n1 [DS23] | > 10 µM | 0% |  | > 10 µM |  | 0.1301 and 0.1411 | 0.1343 and 0.1464 | 0.1332 and 0.1524 | 0.1391 and 0.1534 | 0.1406 and 0.1374 | 0.0615 and 0.162 | 0.1683 and 0.1829 | 0.1869 and 0.2017 | 0.194 and 0.2082 | 0.2263 and 0.2491 | 0.2226 and 0.3132 |  | DDB1–CDK12 complex formation, result in words ([2]; in vitro TR-FRET): did not appreciably promote the binding |
| CC[C@H](CO)Nc1nc(Nc2ccc(-c3ccccn3)cc2)c2ncn(C(C)C)c2n1 [DRF053, reference compound] | 1.31 µM | 387% | 0.704 ± 0.108 µM | > 10 µM | 0.704 µM |  |  |  |  |  |  |  |  |  |  |  | 0.704 µM | TR-FRET signal at compound concentration 4.68 nM ([2]; compound concentration 4.68 nM, raw replicate titration data): 0.2134 and 0.2299 and 0.1361 and 0.1347; TR-FRET signal at compound concentration 21.6 nM ([2]; compound concentration 21.6 nM, raw replicate titration data): 0.2243 and 0.2471 and 0.1497 and 0.153; TR-FRET signal at compound concentration 36 nM ([2]; compound concentration 36 nM, raw replicate titration data): 0.2585 and 0.3171 and 0.1771 and 0.1787; TR-FRET signal at compound concentration 79.2001 nM ([2]; compound concentration 79.2001 nM, raw replicate titration data): 0.3449 and 0.4117 and 0.2284 and 0.2341; TR-FRET signal at compound concentration 158.4 nM ([2]; compound concentration 158.4 nM, raw replicate titration data): 0.4712 and 0.5868 and 0.3097 and 0.3219; TR-FRET signal at compound concentration 309.6 nM ([2]; compound concentration 309.6 nM, raw replicate titration data): 0.6548 and 0.8142 and 0.4579 and 0.474; TR-FRET signal at compound concentration 626.401 nM ([2]; compound concentration 626.401 nM, raw replicate titration data): 0.9256 and 1.1545 and 0.6903 and 0.7002; TR-FRET signal at compound concentration 1252.8 nM ([2]; compound concentration 1252.8 nM, raw replicate titration data): 1.214 and 1.445 and 0.9334 and 0.9779; TR-FRET signal at compound concentration 2448 nM ([2]; compound concentration 2448 nM, raw replicate titration data): 1.442 and 1.672 and 1.232 and 1.263; TR-FRET signal at compound concentration 9936.01 nM ([2]; compound concentration 9936.01 nM, raw replicate titration data): 1.602 and 1.881 and 1.44 and 1.453; TR-FRET signal at compound concentration 20016 nM ([2]; compound concentration 20016 nM, raw replicate titration data): 1.655 and 1.896 and 1.497 and 1.485 |
| Cn1cc(-n2cnc3c(NCc4nc5cc(Cl)c(Cl)cc5[nH]4)nc(NCCc4cn[nH]c4)nc32)cn1 [DS57] | > 10 µM | 0% | 0.072 ± 0.005 µM |  |  |  |  |  |  |  |  |  |  |  |  |  | 0.0723 µM | TR-FRET signal at compound concentration 0.468 nM ([2]; compound concentration 0.468 nM, raw replicate titration data): 0.2681 and 0.2803; TR-FRET signal at compound concentration 2.16 nM ([2]; compound concentration 2.16 nM, raw replicate titration data): 0.3056 and 0.3131; TR-FRET signal at compound concentration 3.6 nM ([2]; compound concentration 3.6 nM, raw replicate titration data): 0.3611 and 0.3774; TR-FRET signal at compound concentration 7.92001 nM ([2]; compound concentration 7.92001 nM, raw replicate titration data): 0.4715 and 0.4922; TR-FRET signal at compound concentration 15.84 nM ([2]; compound concentration 15.84 nM, raw replicate titration data): 0.6621 and 0.6827; TR-FRET signal at compound concentration 30.96 nM ([2]; compound concentration 30.96 nM, raw replicate titration data): 1.043 and 1.045; TR-FRET signal at compound concentration 62.6401 nM ([2]; compound concentration 62.6401 nM, raw replicate titration data): 1.709 and 1.668; TR-FRET signal at compound concentration 125.28 nM ([2]; compound concentration 125.28 nM, raw replicate titration data): 2.476 and 2.42; TR-FRET signal at compound concentration 244.8 nM ([2]; compound concentration 244.8 nM, raw replicate titration data): 2.963 and 3.026; TR-FRET signal at compound concentration 993.601 nM ([2]; compound concentration 993.601 nM, raw replicate titration data): 3.269 and 3.459; TR-FRET signal at compound concentration 2001.6 nM ([2]; compound concentration 2001.6 nM, raw replicate titration data): 3.336 and 3.495; EC50 [2, 15]: 0.0723 µM; DC50 [3, 16]: 0.587 µM |
| CC[C@H](CO)Nc1nc(NCCC2CCCCCCC2)c2ncn(C(C)C)c2n1 [DS38] | > 10 µM | 0% |  | > 10 µM | 5.74 µM | 0.1996 and 0.2467 | 0.2088 and 0.2442 | 0.2151 and 0.2401 | 0.2234 and 0.2572 | 0.237 and 0.2667 | 0.2597 and 0.2826 | 0.3077 and 0.3432 | 0.3992 and 0.4242 | 0.5328 and 0.5897 | 1.042 and 1.049 | 1.225 and 1.271 | 5.74 µM |  |
| CC[C@H](CO)Nc1nc(NCc2ccc(-c3ccccn3)c(=O)[nH]2)c2ncn(C(C)C)c2n1 [WX3] | 0.179 µM | 954% | 0.021 ± 0.001 µM |  |  |  |  |  |  |  |  |  |  |  |  |  | 0.0214 µM | TR-FRET signal at compound concentration ([2]; compound concentration 0.468 nM): 0.2972 and 0.3391; TR-FRET signal at compound concentration ([2]; compound concentration 2.16 nM): 0.4654 and 0.4243; TR-FRET signal at compound concentration ([2]; compound concentration 3.6 nM): 0.6432 and 0.6311; TR-FRET signal at compound concentration ([2]; compound concentration 7.92001 nM): 1.023 and 1.017; TR-FRET signal at compound concentration ([2]; compound concentration 15.84 nM): 1.68 and 1.67; TR-FRET signal at compound concentration ([2]; compound concentration 30.96 nM): 2.537 and 2.526; TR-FRET signal at compound concentration ([2]; compound concentration 62.6401 nM): 3.223 and 3.119; TR-FRET signal at compound concentration ([2]; compound concentration 125.28 nM): 3.664 and 3.458; TR-FRET signal at compound concentration ([2]; compound concentration 244.8 nM): 3.773 and 3.684; TR-FRET signal at compound concentration ([2]; compound concentration 993.601 nM): 3.764 and 3.722; TR-FRET signal at compound concentration ([2]; compound concentration 2001.6 nM): 3.801 and 3.784; EC50 [2, 15]: 0.0214 µM; DC50 [3, 16]: 0.023 µM |

— article PMC10746543, “Design principles for cyclin K molecular glue degraders” (Nature Chemical Biology, 2023)
